Read-outs that look alike come from different tables or passages of the source.

Data set [1] deals with normal human keratinocytes. The data set can be described thus: Vitamin D3 metabolites' uptake by keratinocytes (cell associated radioactivity). It is filed as in vitro ADME. Conditions: for Uptake by keratinocytes, cell associated radioactivity: 60 picomolar, mean of duplicate. The method, then:
Normal human keratinocytes were grown to confluence in Keratinocyte growth medium (KGM) containing 0.15 mM calcium. Medium was changed to fresh medium. The cells were then incubated in duplicate with 10,000 cpm (60 picomolar, or 25 picogram/ml medium) of 25-OH-D3 or 1,25-(OH)2 D3 for various times (0 to 240 minutes). At different time intervals indicated in the Table below, the medium of appropriate wells were aspirated, and the wells were washed three times with a 0.2% bovine serum albumin solution in 50 mM Tris/0.15M sodium chloride buffer pH 7.4. After the wash the cells in the wells were dissolved in 0.1N sodium hydroxide, neutralized with 0.1N hydrochloric acid, mixed with 5 ml of scintillation fluid (Ecolume) and counted in a beta counter. The amount of cpm associated with the cells was calculated as the percent of total cpm added for each time point studied. Data in the table is expressed as cell associated radioactivity as % of total added. Each reported result is a mean of duplicate determinations.

Data set [2] relates to keratinocytes. Conditions: Bikle et al., cited from earlier work.
Data set [3] relates to keratinocytes. Conditions: cited from earlier work.
The conditions of data set [4]: cited from earlier work.
The subject of data set [5] is normal human keratinocytes. The data set can be described thus: DNA synthesis rate (3H-thymidine incorporation) in normal human keratinocytes. In kind it is cell-based. Particulars: Homo sapiens, Keratinocyte; for activity at 1 µM: 1000 nM. The text has this:
Initiation of differentiation of keratinocytes is accompanied by inhibition of their growth. The rate of synthesis of DNA determined by the incorporation of radiolabeled substrate [^3 H] thymidine, is an indicator of the rate of growth of the cells. A decrease in DNA synthesis therefore indicates decrease in growth and increase in differentiation of keratinocytes.
Methodology Used for Determining the Rate of DNA Synthesis in Keratinocytes After Treatment With Various Actives
1. Normal human keratinocytes isolated from neonatal foreskins by trypsin treatment were grown in DME medium/10% fetal calf serum in the presence of irradiated 3T3 mouse fibroblasts for establishing dividing keratinocyte colonies. Keratinocytes were grown under the above condition until their third passage.
2. For the experiments, third passage keratinocytes were plated into a serum-free keratinocyte growth medium (KGM; obtained from Clonetics Corporation, San Diego, Calif.) containing 0.15 mM calcium. 20,000 to 30,000 cells were plated into each well of 24 well cell culture plates and grown for 5 days, until the cells reach about 80% confluence.
3. Medium was changed to fresh medium and the various test materials were added to the medium from an ethanolic stock solution (10 A.M.). The final ethanol concentration in the cultures was kept below 0.2%. Control cultures received no tested material but were dosed with 0.2% ethanol. Each compound or combination was tested in three separate wells. By 4 P.M., 1 uCi of ^3 H-thymidine (AmerSham Corp., Sp activity 40 Ci/mmol) was added to the 1 ml medium in each well. The cells were incubated overnight and 24 hours later (10 A.M. next day) the amount of ^3 H-thymidine associated with the cellular DNA of keratinocytes was assessed as described below.
4. The medium was aspirated, and the wells washed with 1 ml phosphate-buffered saline. The DNA and proteins of the cells in the plate were then precipitated by adding 1 ml of ice-cold 10% trichloroacetic acid (TCA). The plates were left on ice for 30 minutes to complete the precipitation process. TCA was then aspirated and each well was then washed four times with 5% TCA. The plates were then dried on a filter pad and the cells in the wells were dissolved in 0.5 ml of 0.1N sodium hydroxide. The sodium hydroxide was then neutralized using 0.1N hydrochloric acid and the solution (1 ml total volume) was then transferred to a scintillation vial. 100 ul samples from each vial were used for protein assay using BCA protein assay reagent obtained from Pierce Chemical Company. 8 ml of a scintillation fluid (Ecolume) was added to the rest of the solution in the vial, and the vials were counted in a scintillation counter to determine the amount of radioactivity in each vial. The DNA synthesis rate was then calculated as cpm ^3 H thymidine incorporated into total cellular DNA/microgram of cell protein for each individual well. Mean and standard deviation for each group was also calculated.
5. All lipids listed in Tables 1-5 below were synthesized in-house. 25-OH-D3 and 1,25-(OH)2 D3 were obtained from Hoffman La Roche. Vitamin D3 was obtained from Sigma.
(Dividing cells build labelled thymidine or BrdU into new DNA.)

Data set [6] deals with HL-60 cells (human myelocytic leukemia cells). Particulars: cited from earlier work.

Turning to `C=C1/C(=C\C=C2/CCC[C@]3(C)[C@@H]([C@H](C)CCCC(C)(C)O)CC[C@@H]23)C[C@@H](O)C[C@@H]1O` [1,25-(OH)2 D3, 1,25-dihydroxycholecalciferol], the “Uptake by keratinocytes, cell associated radioactivity” value in data set [1] (0 minutes) is listed as 0.8 % of total added; in data set [1] (2 minutes), 2.7 % of total added; in data set [1] (5 minutes), 4.2 % of total added; in data set [1] (10 minutes), 13.0 % of total added; in data set [1] (15 minutes), 10.0 % of total added; in data set [1] (30 minutes), 20.0 % of total added. The “Uptake by keratinocytes, cell associated radioactivity” value in data set [1] (60 minutes) is 15.6 % of total added; in data set [1] (120 minutes) it was 26.2 % of total added; in data set [1] (240 minutes), 30.8 % of total added. Moreover, in data set [1] (Table 6 summary), the “uptake rate by keratinocytes / skin cells” value is given as “rapidly taken up”. In addition, in the data set with keratinocytes [2], the “catabolism to inactive metabolites by keratinocytes” value was “catabolized to inactive metabolites rapidly”. In the data set with keratinocytes [2] (exogenously added), the “degradation within skin cells” value is given as “rapidly degraded within the skin cells”. The “effect on DNA synthesis and differentiation of keratinocytes” value in the data set with keratinocytes [3] (exogenous or endogenous, Pillai et al., Hashimoto et al.) was “inhibits DNA synthesis (i.e., inhibits growth) and induces differentiation of keratinocytes”. For the same molecule, the “toxicity of higher blood levels” value in data set [4] (higher levels of 1,25-(OH)2 D3 in blood) was “increase blood calcium levels and may cause heart problems, muscle weakness and contraction which may be fatal”. Moreover, the “blood level after topical application” value in data set [4] (in vivo) is “increases blood level of 1,25-(OH)2 D3”. Besides, the activity at 0.001 µM in data set [5] (read-out: DNA synthesis of keratinocytes, Table 1, compound alone, 1 nM, Test 1) came to 115 ± 7.7%. Besides, the activity at 0.01 µM worked out at 108 ± 8.7% in data set [5] (read-out: DNA synthesis of keratinocytes, Table 1, compound alone, 10 nM, Test 1); 91.9 ± 5.3% in data set [5] (read-out: DNA synthesis of keratinocytes, Table 1, compound alone, 10 nM, Test 2); 91.8 ± 4.5% in data set [5] (read-out: DNA synthesis of keratinocytes, Table 1, compound alone, 10 nM, Test 3); 91.8 ± 4.6% in data set [5] (read-out: DNA synthesis of keratinocytes, Table 4, 10 nM vitamin D3 or metabolite, no ceramide). In addition, the activity at 0.1 µM in data set [5] (read-out: DNA synthesis of keratinocytes, Table 1, compound alone, 100 nM, Test 1, * = statistically significant growth inhibition) was determined as 102 ± 16.7%; in data set [5] (read-out: DNA synthesis of keratinocytes, Table 1, compound alone, 100 nM, Test 2, * = statistically significant growth inhibition) it was 86 ± 7.7%; in data set [5] (read-out: DNA synthesis of keratinocytes, Table 1, compound alone, 100 nM, Test 3) it was 90.3 ± 9.5%; in data set [5] (read-out: DNA synthesis of keratinocytes, Table 4, 100 nM vitamin D3 or metabolite, no ceramide), 90.3 ± 9.5%. In addition, the activity at 1 µM in data set [5] (read-out: DNA synthesis of keratinocytes, Table 1, compound alone, Test 1, * = statistically significant growth inhibition) is 71.5 ± 2.9%; in data set [5] (read-out: DNA synthesis of keratinocytes, Table 1, compound alone, Test 2, * = statistically significant growth inhibition), 56.3 ± 14.1%. Besides, in data set [5] (read-out: concentration at which statistically significant cell growth inhibition was consistently observed), the minimal effective concentration came to 1 µM.
Take `CC1=C(/C=C/C(C)=C/C=C/C(C)=C/C(=O)O)C(C)(C)CCC1` [retinoic acid]: in the data set with keratinocytes [3], the keratinocyte differentiation entry is reported as “prevents differentiation of keratinocytes”. In addition, in data set [6], the HL-60 cell differentiation entry is reported as “induces differentiation of HL-60 cells”.

These data come from patent publication US5476661A, “Compositions for topical application to skin, hair and nails” (Elizabeth Arden Co., Division of Conopco, Inc., priority 1994, dated 1995).
